# From patent US9221832B2, “Heterocyclic amide derivatives as P2X7 receptor antagonists” (ACTELION PHARMACEUTICALS LTD., priority 2011, dated 2015)
# Target: human recombinant P2X7 receptor (Homo sapiens (Human), UniProt Q99572)
# Test: YO-PRO assay: P2X7 receptor antagonistic activity
# Format: cell-based
# Conditions: HEK cells expressing human P2X7
# Protocol: The P2X7 receptor antagonistic activity of the compounds of formula (I) is determined in accordance with the following experimental method.
# Cell Line Generation and YO-PRO Assay
# Cell line generation was performed in general according to established molecular cloning protocols. Specifically, RNA was extracted from human whole blood using the Qiagen RNeasy kit (Qiagen, CH) according to the manufacturer's instructions. Subsequently cDNA was made (Superscript II, Invitrogen AG, CH) and the human P2X7 gene (genbank ref. BC011913) was amplified with the following primers: […] and […]. The amplified sequence was subsequently ligated into a pcDNA3.1 (+) NotI, NheI digested plasmid. […] Following a 24 h exposure to DNA, cells were trypsinized and re-seeded at low density in the presence of 250 μg Geneticin. Geneticin resistant cells were then selected during two consecutive rounds of cloning by serial limiting dilution with visual inspection. Individual clones were screened for P2X7 expression by applying ATP and recording the resultant uptake of YO-PRO1. Specific cell clones were chosen based on RNA and protein expression. HEK cells stably expressing P2X7 were used to screen drugs using the YO-PRO1 assay. Cells were grown to confluency in adherent culture at 37° C. in a humidified 5% CO2 incubator (split 1/5 every 3-4 days with DMEM, 10% FCS, 1% Penicillin/Streptomycin, 250 μg/ml Geneticin). Adherent cells were detached by incubation with Trypsine (1 ml per 165 cm^2 dish) for 2 minutes, then washed off with 10 ml PBS (without Mg^2+ and Ca^2+), and resuspended in DMEM, 10% FCS, 1% Penicillin/Streptomycin, no Geneticin. […] During this time period, four time points were taken. Each time point comprised the average of several measurements made within a few seconds. […] The FLIPR tetra was equipped with Molecular Devices Screen Works system control software to define and run experimental protocols. […] For IC50 measurements the maximum intensity is plotted against the concentration of compound to determine IC50 values.
# Sequence of human recombinant P2X7 receptor (Q99572 whole entry): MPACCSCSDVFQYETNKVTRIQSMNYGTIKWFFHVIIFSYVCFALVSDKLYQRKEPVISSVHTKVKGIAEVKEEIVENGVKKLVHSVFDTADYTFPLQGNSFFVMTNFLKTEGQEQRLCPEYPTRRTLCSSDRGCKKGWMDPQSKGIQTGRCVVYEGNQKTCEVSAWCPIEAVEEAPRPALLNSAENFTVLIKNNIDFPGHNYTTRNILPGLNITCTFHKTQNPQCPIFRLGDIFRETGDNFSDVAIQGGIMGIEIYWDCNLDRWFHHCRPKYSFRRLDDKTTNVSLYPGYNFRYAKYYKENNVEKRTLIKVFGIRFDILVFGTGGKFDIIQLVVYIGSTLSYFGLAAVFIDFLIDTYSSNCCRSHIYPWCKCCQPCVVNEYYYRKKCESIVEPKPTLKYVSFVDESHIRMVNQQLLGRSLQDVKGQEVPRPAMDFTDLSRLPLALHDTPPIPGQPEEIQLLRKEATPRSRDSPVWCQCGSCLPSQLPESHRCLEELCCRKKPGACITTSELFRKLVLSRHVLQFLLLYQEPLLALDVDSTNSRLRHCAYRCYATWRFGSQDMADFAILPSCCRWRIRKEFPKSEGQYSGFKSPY
row,Structure (SMILES),IC50
1,"N#Cc1ccccc1CC(=O)NC1COc2ncccc21 (racemic) [Example 10, rac-2-(2-Cyano-phenyl)-N-(2,3-dihydro-furo[2,3-b]pyridin-3-yl)-acetamide]",2980 nM
2,"Cc1ccccc1CC(=O)NC1COc2ncccc21 (racemic) [Example 11, rac-N-(2,3-Dihydro-furo[2,3-b]pyridin-3-yl)-2-o-tolyl-acetamide]",1310 nM
3,"COc1ccccc1CC(=O)NC1COc2ncccc21 (racemic) [Example 12, rac-N-(2,3-Dihydro-furo[2,3-b]pyridin-3-yl)-2-(2-methoxy-phenyl)-acetamide]",> 6000 nM
4,"N#Cc1ccc(CC(=O)NC2COc3ncccc32)cc1 (racemic) [Example 13, rac-2-(4-Cyano-phenyl)-N-(2,3-dihydro-furo[2,3-b]pyridin-3-yl)-acetamide]",> 5420 nM
5,"Cc1ccc(CC(=O)NC2COc3ncccc32)cc1 (racemic) [Example 14, rac-N-(2,3-Dihydro-furo[2,3-b]pyridin-3-yl)-2-p-tolyl-acetamide]",> 5430 nM
6,"O=C(Cc1ccc(Cl)cc1)NC1COc2ncccc21 (racemic) [Example 15, rac-2-(4-Chloro-phenyl)-N-(2,3-dihydro-furo[2,3-b]pyridin-3-yl)-acetamide]",1410 nM
7,"O=C(Cc1ccc(C(F)(F)F)cc1)NC1COc2ncccc21 (racemic) [Example 16, rac-N-(2,3-Dihydro-furo[2,3-b]pyridin-3-yl)-2-(4-trifluoromethyl-phenyl)-acetamide]",1170 nM
8,"O=C(Cc1ccc(F)cc1F)NC1COc2ncccc21 (racemic) [Example 17, rac-2-(2,4-Difluoro-phenyl)-N-(2,3-dihydro-furo[2,3-b]pyridin-3-yl)-acetamide]",522 nM
9,"COc1ccc(CC(=O)NC2COc3ncccc32)c(OC)c1 (racemic) [Example 19, rac-N-(2,3-Dihydro-furo[2,3-b]pyridin-3-yl)-2-(2,4-dimethoxy-phenyl)-acetamide]",> 6660 nM
10,"COc1ccc(CC(=O)NC2COc3ncccc32)c(F)c1 (racemic) [Example 20, rac-N-(2,3-Dihydro-furo[2,3-b]pyridin-3-yl)-2-(2-fluoro-4-methoxy-phenyl)-acetamide]",578 nM
11,"O=C(Cc1ccc(Cl)c(Cl)c1)NC1COc2ncccc21 (racemic) [Example 21, rac-2-(3,4-Dichloro-phenyl)-N-(2,3-dihydro-furo[2,3-b]pyridin-3-yl)-acetamide]",473 nM
12,"O=C(Cc1c(F)cc(F)cc1F)NC1COc2ncccc21 (racemic) [Example 22, rac-N-(2,3-Dihydro-furo[2,3-b]pyridin-3-yl)-2-(2,4,6-trifluoro-phenyl)-acetamide]",884 nM
13,"O=C(Cc1ccc(Oc2ccccc2)cc1)NC1COc2ncccc21 (racemic) [Example 36, rac-N-(2,3-Dihydro-furo[2,3-b]pyridin-3-yl)-2-(4-phenoxy-phenyl)-acetamide]",1480 nM
14,"Cc1c(Cl)cc(C(F)(F)F)c(CC(=O)NC2COc3ncccc32)c1F (racemic) [Example 40, rac-2-(4-Chloro-2-fluoro-3-methyl-6-trifluoromethyl-phenyl)-N-(2,3-dihydro-furo[2,3-b]pyridin-3-yl)-acetamide]",1580 nM
15,"Cc1ccc(F)c(CC(=O)NC2COc3ncccc32)c1Cl (racemic) [Example 42, rac-2-(2-Chloro-6-fluoro-3-methyl-phenyl)-N-(2,3-dihydro-furo[2,3-b]pyridin-3-yl)-acetamide]",641 nM
16,"O=C(Cc1cc(Cl)ccc1C(F)(F)F)NC1COc2ncccc21 (racemic) [Example 43, rac-2-(5-Chloro-2-trifluoromethyl-phenyl)-N-(2,3-dihydro-furo[2,3-b]pyridin-3-yl)-acetamide]",8050 nM
17,"O=C(Cc1ccccc1Cl)NC1CCOc2ncccc21 (racemic) [Example 44, rac-2-(2-Chloro-phenyl)-N-(3,4-dihydro-2H-pyrano[2,3-b]pyridin-4-yl)-acetamide]",2000 nM
18,"N#Cc1ccc(CC(=O)NC2CCOc3ncccc32)cc1 (racemic) [Example 45, rac-2-(4-Cyano-phenyl)-N-(3,4-dihydro-2H-pyrano[2,3-b]pyridin-4-yl)-acetamide]",> 6460 nM
19,"O=C(Cc1ccc(C(F)(F)F)cc1)NC1CCOc2ncccc21 (racemic) [Example 46, rac-N-(3,4-Dihydro-2H-pyrano[2,3-b]pyridin-4-yl)-2-(4-trifluoromethyl-phenyl)-acetamide]",1350 nM
20,"O=C(Cc1ccc(Oc2ccccc2)cc1)NC1CCOc2ncccc21 (racemic) [Example 48, rac-N-(3,4-Dihydro-2H-pyrano[2,3-b]pyridin-4-yl)-2-(4-phenoxy-phenyl)-acetamide]",3300 nM
21,"O=C(Cc1c(F)cccc1Cl)NC1CCOc2ncccc21 (racemic) [Example 50, rac-2-(2-Chloro-6-fluoro-phenyl)-N-(3,4-dihydro-2H-pyrano[2,3-b]pyridin-4-yl)-acetamide]",2630 nM
22,"O=C(Cc1ccc(F)cc1F)NC1CCOc2ncccc21 (racemic) [Example 51, rac-2-(2,4-Difluoro-phenyl)-N-(3,4-dihydro-2H-pyrano[2,3-b]pyridin-4-yl)-acetamide]",1690 nM
23,"O=C(Cc1ccc(F)cc1C(F)(F)F)NC1CCOc2ncccc21 (racemic) [Example 52, rac-N-(3,4-Dihydro-2H-pyrano[2,3-b]pyridin-4-yl)-2-(4-fluoro-2-trifluoromethyl-phenyl)-acetamide]",1870 nM
24,"O=C(Cc1cc(F)c(Cl)cc1Cl)NC1CCOc2ncccc21 (racemic) [Example 57, rac-2-(2,4-Dichloro-5-fluoro-phenyl)-N-(3,4-dihydro-2H-pyrano[2,3-b]pyridin-4-yl)-acetamide]",1470 nM

# Now those with a lower IC50, led by results:
row,IC50,Structure (SMILES)
1,12 nM,"Cc1cc(Cl)cc(Cl)c1CC(=O)NC1COc2ncccc21 (racemic) [Example 5, rac-2-(2,4-Dichloro-6-methyl-phenyl)-N-(2,3-dihydro-furo[2,3-b]pyridin-3-yl)-acetamide]"
2,43 nM,"Cc1cc(Cl)cc(Cl)c1CC(=O)NC1CCOc2ncccc21 (racemic) [Example 8, rac-2-(2,4-Dichloro-6-methyl-phenyl)-N-(3,4-dihydro-2H-pyrano[2,3-b]pyridin-4-yl)-acetamide]"
3,393 nM,"O=C(Cc1ccc(F)cc1C(F)(F)F)NC1COc2ncccc21 (racemic) [Example 18, rac-N-(2,3-Dihydro-furo[2,3-b]pyridin-3-yl)-2-(4-fluoro-2-trifluoromethyl-phenyl)-acetamide]"
4,23 nM,"CCc1cc(Cl)cc(Cl)c1CC(=O)NC1COc2ncccc21 (racemic) [Example 32, rac-2-(2,4-Dichloro-6-ethyl-phenyl)-N-(2,3-dihydro-furo[2,3-b]pyridin-3-yl)-acetamide]"
5,242 nM,"O=C(Cc1c(Cl)cc(Cl)cc1C(F)(F)F)NC1COc2ncccc21 (racemic) [Example 33, rac-2-(2,4-Dichloro-6-trifluoromethyl-phenyl)-N-(2,3-dihydro-furo[2,3-b]pyridin-3-yl)-acetamide]"
6,7.4 nM,"O=C(Cc1cccc(C(F)(F)F)c1Cl)NC1COc2ncccc21 (racemic) [Example 34, rac-2-(2-Chloro-3-trifluoromethyl-phenyl)-N-(2,3-dihydro-furo[2,3-b]pyridin-3-yl)-acetamide]"
7,193 nM,"O=C(Cc1ccc(Cl)cc1C(F)(F)F)NC1COc2ncccc21 (racemic) [Example 35, rac-2-(4-Chloro-2-trifluoromethyl-phenyl)-N-(2,3-dihydro-furo[2,3-b]pyridin-3-yl)-acetamide]"
8,324 nM,"N#Cc1cc(Cl)cc(Cl)c1CC(=O)NC1COc2ncccc21 (racemic) [Example 37, rac-2-(2,4-Dichloro-6-cyano-phenyl)-N-(2,3-dihydro-furo[2,3-b]pyridin-3-yl)-acetamide]"
9,54 nM,"O=C(Cc1c(Cl)cc(Cl)cc1C1CC1)NC1COc2ncccc21 (racemic) [Example 39, rac-2-(2,4-Dichloro-6-cyclopropyl-phenyl)-N-(2,3-dihydro-furo[2,3-b]pyridin-3-yl)-acetamide]"
10,332 nM,"O=C(Cc1cc(F)c(Cl)cc1Cl)NC1COc2ncccc21 (racemic) [Example 41, rac-2-(2,4-Dichloro-5-fluoro-phenyl)-N-(2,3-dihydro-furo[2,3-b]pyridin-3-yl)-acetamide]"
11,17 nM,"O=C(Cc1cccc(C(F)(F)F)c1Cl)NC1CCOc2ncccc21 (racemic) [Example 49, rac-2-(2-Chloro-3-trifluoromethyl-phenyl)-N-(3,4-dihydro-2H-pyrano[2,3-b]pyridin-4-yl)-acetamide]"
12,67 nM,"O=C(Cc1cccc(Cl)c1Cl)NC1CCOc2ncccc21 (racemic) [Example 54, rac-2-(2,3-Dichloro-phenyl)-N-(3,4-dihydro-2H-pyrano[2,3-b]pyridin-4-yl)-acetamide]"
